Here are results for 13 molecules from patent US8598132B2, “Glycosylated indolocarbazoles, method for obtaining same and uses thereof” (Universidad de Oviedo, priority 2008, dated 2013).

One assay addresses T1, Chk1 (Homo sapiens, UniProt O14757).
T1 construct: purchased Carna Biosciences
T1 sequence (O14757 1-476): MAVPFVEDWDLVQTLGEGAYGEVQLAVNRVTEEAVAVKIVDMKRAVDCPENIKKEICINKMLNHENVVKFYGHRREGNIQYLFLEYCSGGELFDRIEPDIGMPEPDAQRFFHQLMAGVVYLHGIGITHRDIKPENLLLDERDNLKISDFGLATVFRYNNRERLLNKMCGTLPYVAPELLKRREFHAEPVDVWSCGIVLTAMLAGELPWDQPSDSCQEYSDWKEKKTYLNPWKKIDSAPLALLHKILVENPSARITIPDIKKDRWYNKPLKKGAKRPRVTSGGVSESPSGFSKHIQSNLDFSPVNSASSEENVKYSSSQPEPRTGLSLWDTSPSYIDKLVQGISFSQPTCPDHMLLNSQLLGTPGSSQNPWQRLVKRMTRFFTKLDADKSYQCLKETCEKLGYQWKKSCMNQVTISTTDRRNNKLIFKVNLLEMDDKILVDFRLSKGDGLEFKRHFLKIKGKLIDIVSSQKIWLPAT
The assay can be described thus: LabChip (Caliper) kinase assay, Chk1. The format is biochemical. The note with it: for inhibition at 0.01 µM: compound at 10 nM; for inhibition at 0.01 µM / inhibition at 0.1 µM: read-out: remaining kinase activity (in %) / percentage of inhibition; for inhibition at 0.1 µM: compound at 100 nM; for IC50: ATP at Km, read-out: CI50 (the source's name). The method, then:
(§1) The analysis of kinase activity described here was performed using LabChip (Caliper Life Sciences), specifically the Caliper LC3000 and the EZ Reader II instruments.
(§2) The kinase assay used measures the conversion of a fluorescent peptide (substrate) to a phosphorylated product. The reaction mixture, in a microplate well, is introduced by a capillary in a chip where the non-phosphorylated substrate and the phosphorylated product are separated by […]. The intensity of the fluorescent signal over time is related to the reaction progress. The phosphorylated product migrates quicker than the non-phosphorylated substrate and the signals of the two forms of the peptide appear as differentiated peaks. The Caliper determines the peak height and calculates the ratio of product to the peak sum (P/(P+S)). This value is used to compare wells with compounds and wells with controls and thus determine the % of inhibition for the given product.
(§3) The followings kinases were used for the enzymatic inhibition studies, between brackets the value of the Michaelis-Menten constant, Km, of the ATP (Adenosine triphosphate) for each kinase, in μM: obtained from Carna Biosciences: MAPKAPK2 (4.6), AurA (3.6), AurB (5), PKCζ (3.8), RSK1 (23.3), PRAK (5), Erk1 (33.4), PKD2 (32.1), CK1d (16.3), CHK1 (33), ABL (61.7), FYN (36), LYNa (17), CHK2 (57.8), MET (79.5), LCK (28.5), SRC (38), GSK3β (7.3), Erk2 (62.1), PKACα (1.7), AKT2 (186.1), INSR (871.8), p38a (396.5), AKT1(48), MSK1 (21.2), PKCβ2 (84.8), ROCK2 (3.3), PIM2 (4.9), AMPK (38.6), KDR (164.8), IRAK4 (196.5), SGK1 (121.8), SYK (33.5); obtained from Invitrogen: CDK2 (57.6), BTK (123), HGK (80); obtained from Upstate: MST2 (36.6), PKGα (16), PAK2 (1.9), IGF1R (320), FGFR1 (171), MARK1 (33), CAMK2δ (22.4), c-TAK1 (66), DYRK1a (18.1), CaMK4 (3.9), FLT3 (350), c-Raf (6.2), P70S6K (95).
(§4) The compounds were dissolved in 100% DMSO and were diluted at 25 times the final concentration desired for the assay. In the case of the determination of Cl50, serial dilutions were made to reach eight concentrations and give rise to the inhibition curve. 1 μL of each concentration is transferred, in duplicate to a 384-well microplate. 12 μL of enzymatic buffer is added to each well containing purified kinase (several suppliers as indicated above), 100 mM HEPES, pH 7.5, 1 mM DTT (Calbiochem), 0.002% Brij-35 (Sigma) and also in presence of 10 mM MgCl2 as cofactor, except for INSR and IRAK4 wherein 10 mM MnCl2 is used instead of MgCl2. For the kinases CAMK26 and CAMK4, 1 mM CaCl2 and 6.7 μg/mL of calmodulin are also added. For KDR kinase, 0.05% of the CHAPSO detergent is added. For the c-Raf kinase, 10 mM MnCl2 is added. For PKCβ2 0.02 μg/mL of PS/PMA is added. For PKGα se 10 μM of cGMP (cyclic guanosine monophosphate) is added. The compound and the enzyme are left for 15 minutes preincubation and, then, the following are added to each well: 12 μL of peptide buffer/ATP containing 100 mM HEPES, pH 7.5, 1.5 μM peptide marker with fluorescein (specific for the corresponding kinase), ATP (at concentration KM), and 0.002% Brij-35 to start the reaction. Generally, the reactions are incubated for 1-1.5 h at ambient temperature to obtain an adequate conversion (15-40%) of the peptide to the phosphorylated product. The reactions were ended by the addition of 45 μL of buffer containing 0 mM EDTA. The microplates were read by the LabChip 3000 using a 12-channel LabChip. The P/(P+S) values were obtained as described above and the CI50 curves were generated using XIfit.
(§5) Table 9a has the 0150 data obtained in pairs of compound-kinase selected from the compounds of formula (VII), (VIII), (IX), (XVI), (XVII) and (XVIII) after taking inhibition measurements at 100 nM and 10 nM. Those couples that provide >70% of inhibition at 10 nM were consider for measuring its IC50. […]

The next assay deals with T2, KDR (Homo sapiens, UniProt P35968).
T2 construct: purchased Carna Biosciences
T2 sequence (P35968 20-1356): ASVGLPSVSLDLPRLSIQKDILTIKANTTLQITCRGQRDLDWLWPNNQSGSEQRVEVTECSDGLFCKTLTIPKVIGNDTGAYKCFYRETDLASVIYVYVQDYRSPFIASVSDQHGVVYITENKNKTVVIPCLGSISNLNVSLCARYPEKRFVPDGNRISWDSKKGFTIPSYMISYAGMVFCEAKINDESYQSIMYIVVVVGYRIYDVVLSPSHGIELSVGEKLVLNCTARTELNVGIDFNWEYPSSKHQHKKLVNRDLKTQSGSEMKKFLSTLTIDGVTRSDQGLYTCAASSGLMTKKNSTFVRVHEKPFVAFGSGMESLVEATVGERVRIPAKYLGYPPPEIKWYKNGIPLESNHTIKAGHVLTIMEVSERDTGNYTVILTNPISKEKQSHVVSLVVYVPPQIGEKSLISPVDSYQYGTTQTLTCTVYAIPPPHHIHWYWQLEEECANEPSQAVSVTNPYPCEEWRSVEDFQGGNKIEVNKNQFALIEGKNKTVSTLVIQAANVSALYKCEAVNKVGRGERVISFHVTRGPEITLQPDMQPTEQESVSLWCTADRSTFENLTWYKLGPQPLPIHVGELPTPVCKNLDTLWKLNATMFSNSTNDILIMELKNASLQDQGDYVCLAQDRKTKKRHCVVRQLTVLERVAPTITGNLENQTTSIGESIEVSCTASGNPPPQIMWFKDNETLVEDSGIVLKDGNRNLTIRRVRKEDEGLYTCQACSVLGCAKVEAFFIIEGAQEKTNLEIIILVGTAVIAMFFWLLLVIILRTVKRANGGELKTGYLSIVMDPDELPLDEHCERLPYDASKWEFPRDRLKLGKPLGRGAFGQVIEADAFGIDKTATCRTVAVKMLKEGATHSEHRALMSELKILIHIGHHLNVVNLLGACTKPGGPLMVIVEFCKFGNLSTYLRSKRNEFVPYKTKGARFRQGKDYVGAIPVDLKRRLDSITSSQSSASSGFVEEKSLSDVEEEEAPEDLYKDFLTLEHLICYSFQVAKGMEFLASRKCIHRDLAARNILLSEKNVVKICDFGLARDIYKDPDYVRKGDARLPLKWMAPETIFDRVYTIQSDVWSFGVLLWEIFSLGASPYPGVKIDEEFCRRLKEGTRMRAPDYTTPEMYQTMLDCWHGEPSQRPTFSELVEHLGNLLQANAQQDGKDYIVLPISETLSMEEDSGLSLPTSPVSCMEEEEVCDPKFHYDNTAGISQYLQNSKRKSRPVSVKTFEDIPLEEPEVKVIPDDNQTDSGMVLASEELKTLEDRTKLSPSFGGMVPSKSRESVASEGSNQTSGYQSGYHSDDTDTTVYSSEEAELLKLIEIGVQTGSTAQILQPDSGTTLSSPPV
The assay can be described thus: LabChip (Caliper) kinase assay, KDR. The format is biochemical. Particulars: for inhibition at 0.01 µM: compound at 10 nM; for inhibition at 0.01 µM / inhibition at 0.1 µM: read-out: remaining kinase activity (in %) / percentage of inhibition; for inhibition at 0.1 µM: compound at 100 nM; for IC50: ATP at Km, read-out: CI50 (the source's name). On the procedure: as §1, §2, §3, §4, §5

Bounds are passed on as bounds.

`C[C@@H]1O[C@@H](n2c3ccccc3c3c4c(c5c6ccccc6[nH]c5c32)C(=O)NC4=O)[C@H](O)[C@H](O)[C@H]1O` [formula (III), N^13-1′-β-L-rhamnosylarcyriaflavin]: the inhibition at 0.01 µM is -3% on Chk1 and -7% at KDR. The inhibition at 0.1 µM on Chk1 came out at 15%; on KDR, 21%.
On the same counts, the results for `C[C@@H]1O[C@@H](n2c3ccccc3c3c4c(c5c6ccccc6[nH]c5c32)C(=O)NC4=O)C[C@H](O)[C@H]1O` [formula (IV), N^13-1′-β-L-olivosylarcyriaflavin] are 5%, 21%, 35% and 68%.
In the case of `C[C@]12O[C@H](C[C@@H](O)[C@H]1O)n1c3ccccc3c3c4c(c5c6ccccc6n2c5c31)C(=O)NC4=O` [formula (IX), N^12-5′(S)-N^13-1′-(R)-L-digitoxosylarcyriaflavin], at KDR, the IC50 was more than 10 nM.
As to `C[C@@H]1O[C@@H](n2c3ccccc3c3c4c(c5c6ccccc6[nH]c5c32)C(=O)NC4=O)C[C@@H](O)[C@H]1O` [formula (V), N^13-1′-β-L-digitoxosylarcyriaflavin], on Chk1, the inhibition at 0.01 µM was found to be 45% and the inhibition at 0.1 µM was 81%. In addition, on KDR, the inhibition at 0.01 µM is 28% and the inhibition at 0.1 µM amounted to 63%.
On the same counts, the results for `C[C@H]1O[C@@H](n2c3ccccc3c3c4c(c5c6ccccc6[nH]c5c32)C(=O)NC4=O)C[C@@H](O)[C@@H]1O` [formula (VI), N^13-1′-β-D-olivosylarcyriaflavin] are 2%, 50%, 2% and 40%.
Consider `C[C@]12O[C@H]([C@H](O)[C@H](O)[C@H]1O)n1c3ccccc3c3c4c(c5c6ccccc6n2c5c31)C(=O)NC4=O` [formula (VII), N^12-5′(S)-N^13-1′-(R)-L-rhamnosylarcyriaflavin], for which the IC50 at Chk1 was 1 nM; on KDR it was 3.7 nM.
On the same counts, the results for `C[C@]12O[C@H](C[C@H](O)[C@H]1O)n1c3ccccc3c3c4c(c5c6ccccc6n2c5c31)C(=O)NC4=O` [formula (VIII), N^12-5′(S)-N^13-1′-(R)-L-olivosylarcyriaflavin] are 4.9 nM and 0.55 nM.
As to `C[C@@H]1O[C@@H](n2c3ccccc3c3c4c(c5c6ccccc6[nH]c5c32)CNC4=O)[C@H](O)[C@H](O)[C@H]1O` [formula (XII), N^13-1′-β-L-rhamnosyl-k252c], the inhibition at 0.01 µM was 2% at Chk1 and -1% on KDR. The inhibition at 0.1 µM turned out to be 8% on Chk1 and 6% at KDR.
For `C[C@@H]1O[C@@H](n2c3ccccc3c3c4c(c5c6ccccc6[nH]c5c32)CNC4=O)C[C@H](O)[C@H]1O` [formula (XIII), N^13-1′-β-L-olivosyl-k252c] the same measures were 1%, 7%, 27% and 48%.
For `C[C@@H]1O[C@@H](n2c3ccccc3c3c4c(c5c6ccccc6[nH]c5c32)CNC4=O)C[C@@H](O)[C@H]1O` [formula (XIV), N^13-1′-β-L-digitoxosyl-k252c] the same measures were 6%, 1%, 46% and 16%.
On the same counts, the results for `C[C@H]1O[C@@H](n2c3ccccc3c3c4c(c5c6ccccc6[nH]c5c32)CNC4=O)C[C@@H](O)[C@@H]1O` [formula (XV), N^13-1′-β-D-olivosyl-k252c] are 4%, -4%, 20% and 18%.
As for `C[C@]12O[C@H]([C@H](O)[C@H](O)[C@H]1O)n1c3ccccc3c3c4c(c5c6ccccc6n2c5c31)CNC4=O` [formula (XVI), N^12-5′(S)-N^13-1′-(R)-L-rhamnosyl-k252c], on Chk1, the IC50 stood at 2.4 nM.
For the molecule `C[C@]12O[C@H](C[C@@H](O)[C@H]1O)n1c3ccccc3c3c4c(c5c6ccccc6n2c5c31)CNC4=O` [formula (XVIII), N^12-5′(S)-N^13-1′-(R)-L-digitoxosyl-k252c], the IC50 on Chk1 and on KDR was more than 10 nM throughout.
